Experiment [1] deals with T1, rhBCL-10 (recombinant human BCL-10) (Homo sapiens, UniProt O95999).
T1 construct: gene BCL10; recombinant human protein, amine-coupled on sensor chip for SPR
T1 sequence (O95999 1-233): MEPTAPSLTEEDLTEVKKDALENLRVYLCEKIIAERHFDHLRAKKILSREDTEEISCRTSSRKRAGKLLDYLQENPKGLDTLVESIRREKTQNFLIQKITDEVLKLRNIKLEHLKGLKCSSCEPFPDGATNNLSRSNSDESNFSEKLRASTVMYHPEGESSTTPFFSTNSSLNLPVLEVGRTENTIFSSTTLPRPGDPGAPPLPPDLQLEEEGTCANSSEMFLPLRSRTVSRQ
Put plainly: SPR (Biacore T200), global […] Langmuir kinetic fit. The format is binding. Background: SPR reads the build-up and loss of mass on a sensor chip optically.

A further experiment deals with T2, Flag-BCL-10 (Homo sapiens, UniProt O95999).
T2 construct: gene BCL10; Flag-tagged, overexpressed in HEK293T, cell lysate; plasmid section instead says N-terminal 'Streptococcus' tag in pCDH-EF1-MCS-T2A-Puro
T2 sequence (O95999 1-233): T1 sequence (O95999 1-233)
Put plainly: competition of free emodin against pull-down by emodin-Sepharose, anti-Flag western blot. The format is biochemical. Conditions: 100 µM free emodin; HEK293T lysate, pH 7.4, 4 °C. In general terms: In western blotting, separated proteins are transferred to a membrane and probed.

Experiment [2] concerns the target T1, rhBCL-10 (recombinant human BCL-10). Nature of the experiment: thermal shift, soluble protein by western blot. The format is binding. Particulars: 100 µM emodin, 37-67 °C; text says recombinant BCL-10, methods describe lysate of PMA-treated HL-60 cells.

In general, Kd refers to the free concentration of one partner at which half of the binding sites on the other are occupied at equilibrium, for simple one-to-one binding.

Turning to `Cc1cc(O)c2c(c1)C(=O)c1cc(O)cc(O)c1C2=O` [Emodin], the Kd in experiment [1] is 1940 nM. Moreover, the “competition of free emodin against pull-down by emodin-Sepharose, anti-Flag west” value at Flag-BCL-10 is listed as “free Emodin competitively inhibited the binding of Flag-BCL-10 to Emodin-Sepharose”. The thermal stabilisation result in experiment [2] is given as “Emodin binding significantly enhances BCL-10′s thermal resistance”.

(Values after PMC12591137, “Emodin Alleviates Sepsis‐Induced Multiorgan Damage by Inhibiting NETosis through Targeting Neutrophils BCL‐10” (Advanced Science, 2025).)
